Measured values reported in patent US7135462B2, “Hepatitis C virus inhibitors” (priority 2003, dated 2006).
Read-outs that look alike come from different tables or passages of the source.

Key:
[1] = tested on: HCV replicon in Huh7 cells; assay: microbe, parasite or virus in culture; format: cell-based, strain 1b; settings: Hepatitis C virus, Huh-7, 96 h; Huh7 cells expressing HCV replicon, 4 days; activity range class
From the text: Generation of HCV Replicon
This system enabled us to evaluate the effects of our HCV Protease compounds on HCV RNA replication. Briefly, using the HCV strain 1b sequence described in the Lohmann paper (Assession number: AJ238799), an HCV cDNA was generated encoding the 5′ internal ribosome entry site (IRES), the neomycin resistance gene, the EMCV (encephalomyocarditis viurs)-IRES and the HCV nonstructural proteins, NS3-NS5B, and 3′ non-translated region (NTR). In vitro transcripts of the cDNA were transfected into the human hepatoma cell line, Huh7. […] Resulting cell lines were characterized for positive and negative strand RNA production and protein production over time.
Huh7 cells, constitutively expressing the HCV replicon, were grown in Dulbecco's Modified Eagle Media (DMEM) containing 10% Fetal calf serum (FCS) and 1 mg/ml G418 (Gibco-BRL). Cells were seeded the night before (1.5×10^4 cells/well) in 96-well tissue-culture sterile plates. Compound and no compound controls were prepared in DMEM containing 4% FCS, 1:100 Penicillin/Streptomysin, 1:100 L-glutamine and 5% DMSO in the dilution plate (0.5% DMSO final concentration in the assay). Compound/DMSO mixes were added to the cells and incubated for 4 days at 37° C. After 4 days, plates were rinsed thoroughly with Phosphate-Buffered Saline (PBS) (3 times 150 μl). The cells were lysed with 25 μl of a lysis assay reagent containing the FRET peptide (RET S1, as described for the in vitro enzyme assay). The lysis assay reagent was made from 5× cell Luciferase cell culture lysis reagent (Promega #E153A) diluted to 1× with distilled water, NaCl added to 150 mM final, the FRET peptide diluted to 10 μM final from a 2 mM stock in 100% DMSO. The plate was then placed into the Cytofluor 4000 instrument which had been set to 340 nm excitation/490 nm emission, automatic mode for 21 cycles and the plate read in a kinetic mode. EC50 determinations were carried out as described for the IC50 determinations. […]
The percentage inhibition was calculated using the formula below: […]
The values were graphed and analyzed using XLFit to obtain the EC50 value.

[2] = molecular target: T1, HCV NS3/4A protease complex (BMS strain) (UniProt P27958, C1454S/C1711G, species not given); assay: Recombinant HCV NS3/4A protease complex FRET peptide assay; format: biochemical, Hepatitis C virus (HCV), genotype 1a; settings: NS3/4A BMS strain, activity range class
T1 construct: for H77 and J4L6S; fused on or other part: Three-lysine solubilising tail at the C-terminus of NS4A
From the text: Recombinant HCV NS3/4A Protease Complex FRET Peptide Assay
Serum from an HCV-infected patient was obtained from Dr. T. Wright, San Francisco Hospital. An engineered full-length cDNA (compliment deoxyribonucleic acid) template of the HCV genome (BMS strain) was constructed from DNA fragments obtained by reverse transcription-PCR (RT-PCR) of serum RNA (ribonucleic acid) and using primers selected on the basis of homology between other genotype 1a strains.
The H77 and J4L6S strains were used for production of recombinant NS3/4A protease complexes. […] Briefly, a three-lysine solubilizing tail was added at the 3′-end of the NS4A coding region. […] Briefly, the NS3/4A protease complex expression was induced with 0.5 millimolar (mM) Isopropyl β-D-1-thiogalactopyranoside (IPTG) for 22 hours (h) at 20° C. […] The cells were resuspended in lysis buffer (10 mL/g) consisting of 25 mM N-(2-Hydroxyethyl)piperazine-N′-(2-Ethane Sulfonic acid) (HEPES), pH 7.5, 20% glycerol, 500 mM Sodium Chloride (NaCl), 0.5% Triton X-100, 1 microgram/milliliter (“μg/mL”) lysozyme, 5 mM Magnesium Chloride (MgCl2), 1 μg/ml DnaseI, 5 mM β-Mercaptoethanol (βME), Protease inhibitor—Ethylenediamine Tetraacetic acid (EDTA) free (Roche), homogenized and incubated for 20 minutes (min) at 4° C. The homogenate was sonicated and clarified by ultra-centrifugation at 235000 g for 1 h at 4° C. Imidazole was added to the supernatant to a final concentration of 15 mM and the pH adjusted to 8.0. The crude protein extract was loaded on a Nickel—Nitrilotriacetic acid (Ni-NTA) column pre-equilibrated with buffer B (25 mM HEPES, pH 8.0, 20% glycerol, 500 mM NaCl, 0.5% Triton X-100, 15 mM imidazole, 5 mM βME). The sample was loaded at a flow rate of 1 mL/min. The column was washed with 15 column volumes of buffer C (same as buffer B except with 0.2% Triton X-100). The protein was eluted with 5 column volumes of buffer D (same as buffer C except with 200 mM Imidazole).
NS3/4A protease complex-containing fractions were pooled and loaded on a desalting column Superdex-S200 pre-equilibrated with buffer D (25 mM HEPES, pH 7.5, 20% glycerol, 300 mM NaCl, 0.2% Triton X-100, 10 mM βME). Sample was loaded at a flow rate of 1 mL/min. NS3/4A protease complex-containing fractions were pooled and concentrated to approximately 0.5 mg/ml.
The enzyme was stored at −80° C., thawed on ice and diluted prior to use in assay buffer. […] The sequence of this peptide is loosely based on the NS4A/NS4B natural cleavage site for the HCV NS3 protease except there is an ester linkage rather than an amide bond at the cleavage site. The peptide substrate was incubated with one of the three recombinant NS3/4A protease complexes, in the absence or presence of a compound of the present invention, and the formation of fluorescent reaction product was followed in real time using a Cytofluor Series 4000.
The reagents were as follow: HEPES and Glycerol (Ultrapure) were obtained from GIBCO-BRL. Dimethyl Sulfoxide (DMSO) was obtained from Sigma. β-Mercaptoethanol was obtained from Bio Rad.
Assay buffer: 50 mM HEPES, pH 7.5; 0.15 M NaCl; 0.1% Triton; 15% Glycerol; 10 mM βME. Substrate: 2 μM final concentration (from a 2 mM stock solution in DMSO stored at −20° C.). HCV NS3/4A protease type 1a (1b), 2–3 nM final concentration (from a 5 μM stock solution in 25 mM HEPES, pH 7.5, 20% glycerol, 300 mM NaCl, 0.2% Triton-X100, 10 mM βME).
The assay was performed in a 96-well polystyrene black plate from Falcon.

## C=C[C@@H]1C[C@]1(NC(=O)[C@@H]1C[C@@H](Oc2nccc3cc(OC)ccc23)CN1C(=O)[C@@H](NC(=O)NC(C)(C)CC)C(C)(C)C)C(=O)NS(=O)(=O)C1(C)CC1 [Cmpd 219]
[1]
  EC50: < 100 nM
[2]; read-out: IC50
  IC50: < 100 nM

## C=C[C@@H]1C[C@]1(NC(=O)[C@@H]1C[C@@H](Oc2nccc3c(Cl)c(OC)ccc23)CN1C(=O)[C@@H](NC(=O)OC(C)(C)C)C(C)(C)C)C(=O)NS(=O)(=O)C1(CC)CC1 [Cpd 105]
[1]
  EC50: < 100 nM
[2]; read-out: IC50
  IC50: < 100 nM

## C=C[C@@H]1C[C@]1(NC(=O)[C@@H]1C[C@@H](Oc2nccc3c(OC(F)(F)F)cccc23)CN1C(=O)[C@@H](NC(=O)OC(C)(C)C)C(C)(C)C)C(=O)NS(=O)(=O)C1(CC)CC1 [Cpd 103]
[1]
  EC50: 100 to 1000 nM
[2]; read-out: IC50
  IC50: < 100 nM

## C=C[C@@H]1C[C@]1(NC(=O)[C@@H]1C[C@@H](Oc2nccc3cc(OC)ccc23)CN1C(=O)[C@@H](NC(=O)NC1CCCC1)C(C)(C)C)C(=O)NS(=O)(=O)C1(C)CC1 [Cmpd 218]
[1]
  EC50: < 100 nM
[2]; read-out: IC50
  IC50: < 100 nM

## C=C[C@@H]1C[C@]1(NC(=O)[C@@H]1C[C@@H](Oc2ncc(Cl)c3cc(OC)ccc23)CN1C(=O)[C@@H](NC(=O)OC(C)(C)C)C(C)(C)C)C(=O)NS(=O)(=O)C1(CC)CC1 [Cpd 107]
[1]
  EC50: < 100 nM
[2]; read-out: IC50
  IC50: < 100 nM

## C=C[C@@H]1C[C@]1(NC(=O)[C@@H]1C[C@@H](Oc2nccc3ccccc23)CN1C(=O)[C@@H](NC(=O)O[C@@H]1C[C@H](C)CC[C@H]1C(C)C)C(C)(C)C)C(=O)NS(=O)(=O)C1(Cc2ccccc2)CC1 [Cmpd 209]
[1]
  EC50: 1000 to 10000 nM
[2]; read-out: IC50
  IC50: 10000 to 100000 nM

## C=C[C@@H]1C[C@]1(NC(=O)[C@@H]1C[C@@H](Oc2nccc3c(OC)c(Cl)ccc23)CN1C(=O)[C@@H](NC(=O)OC(C)(C)C)C(C)(C)C)C(=O)NS(=O)(=O)C1(CC)CC1 [Cpd 106]
[1]
  EC50: < 100 nM
[2]; read-out: IC50
  IC50: < 100 nM

## C=C[C@@H]1C[C@]1(NC(=O)[C@@H]1C[C@@H](Oc2cc(-c3ccccc3)nc3c(C)noc23)CN1C(=O)[C@@H](NC(=O)OC(C)(C)C)C(C)(C)C)C(=O)NS(=O)(=O)C1(Cc2ccccc2)CC1 [Cmpd 500]
[1]
  EC50: 100 to 1000 nM
[2]; read-out: IC50
  IC50: < 100 nM

## C=C[C@@H]1C[C@]1(NC(=O)[C@@H]1C[C@@H](Oc2nccc3c4c(ccc23)OCCO4)CN1C(=O)[C@@H](NC(=O)OC(C)(C)C)C(C)(C)C)C(=O)NS(=O)(=O)C1(CC)CC1 [Cpd 108]
[1]
  EC50: < 100 nM
[2]; read-out: IC50
  IC50: < 100 nM

## C=C[C@@H]1C[C@]1(NC(=O)[C@@H]1C[C@@H](Oc2nccc3cc(OC)ccc23)CN1C(=O)[C@@H](NC(=O)N1CCC1)C(C)(C)C)C(=O)NS(=O)(=O)C1(C)CC1 [Cmpd 220]
[1]
  EC50: 100 to 1000 nM
[2]; read-out: IC50
  IC50: < 100 nM

## C=C[C@@H]1C[C@]1(NC(=O)[C@@H]1C[C@@H](Oc2cc3c(Cl)nccc3cc2OC)CN1C(=O)[C@@H](NC(=O)OC(C)(C)C)C(C)(C)C)C(=O)NS(=O)(=O)C1(CC)CC1 [Cpd 110]
[1]
  EC50: < 100 nM
[2]; read-out: IC50
  IC50: < 100 nM

## C=C[C@@H]1C[C@]1(NC(=O)[C@@H]1C[C@@H](Oc2nccc3c(OC)cccc23)CN1C(=O)[C@@H](NC(=O)OC(C)(C)C)C(C)(C)C)C(=O)NS(=O)(=O)C1(CC)CC1 [Cpd 100]
[1]
  EC50: < 100 nM
[2]
  IC50: < 100 nM

## C=C[C@@H]1C[C@]1(NC(=O)[C@@H]1C[C@@H](Oc2nc(-c3ccccc3)nc3ccccc23)CN1C(=O)[C@@H](NC(=O)c1cnccn1)C(C)(C)C)C(=O)NS(=O)(=O)C1(CC2CC2)CC1 [Cmpd 605]
[1]
  EC50: 1000 to 10000 nM
[2]; read-out: IC50
  IC50: 100 to 1000 nM

## C=C[C@@H]1C[C@]1(NC(=O)[C@@H]1C[C@@H](Oc2nc(-c3ccccc3)nc3ccccc23)CN1C(=O)[C@@H](NC(=O)OC(C)(C)C)C(C)(C)C)C(=O)NS(=O)(=O)C1(Cc2ccccc2)CC1 [Cmpd 601]
[1]
  EC50: 100 to 1000 nM
[2]; read-out: IC50
  IC50: < 100 nM

## C=C[C@@H]1C[C@]1(NC(=O)[C@@H]1C[C@@H](Oc2ncc(Cl)c3ccccc23)CN1C(=O)[C@@H](NC(=O)OC(C)(C)C)C(C)(C)C)C(=O)NS(=O)(=O)C1(CC)CC1 [Cpd 102]
[1]
  EC50: 100 to 1000 nM
[2]
  IC50: < 100 nM

## C=C[C@@H]1C[C@]1(NC(=O)[C@@H]1C[C@@H](Oc2ncc(Cl)c3ccccc23)CN1C(=O)[C@@H](NC(=O)OC(C)C)C(C)(C)C)C(=O)NS(=O)(=O)C1(CC)CC1 [Cpd 112]
[1]
  EC50: 100 to 1000 nM
[2]; read-out: IC50
  IC50: < 100 nM

## C=C[C@@H]1C[C@]1(NC(=O)[C@@H]1CC(Oc2ccnc(-c3cccs3)c2)CN1C(=O)[C@@H](NC(=O)OC1CCCC1)C(C)(C)C)C(=O)NS(=O)(=O)C1(Cc2ccccc2)CC1 (stereo partly shown) [Cmpd 701]
[1]
  EC50: 100 to 1000 nM
[2]; read-out: IC50
  IC50: < 100 nM

## C=C[C@@H]1C[C@]1(NC(=O)[C@@H]1C[C@@H](Oc2cc(-c3ccccc3)nc3c(C)noc23)CN1C(=O)[C@@H](NC(=O)OC(C)(C)C)C(C)(C)C)C(=O)NS(=O)(=O)C1(CCC)CC1 [Cmpd 501]
[1]
  EC50: 100 to 1000 nM
[2]
  IC50: < 100 nM

## C=C[C@@H]1C[C@]1(NC(=O)[C@@H]1C[C@@H](Oc2nccc3ccccc23)CN1C(=O)[C@@H](NC(=O)OC(C)(C)C)C(C)(C)C)C(=O)NS(=O)(=O)C1(Cc2ccccc2)CC1 [Cmpd 401]
[1]
  EC50: 100 to 1000 nM
[2]
  IC50: 100 to 1000 nM

## C=C[C@@H]1C[C@]1(NC(=O)[C@@H]1C[C@@H](Oc2nccc3ccccc23)CN1C(=O)[C@@H](NC(=O)OC(C)(C)C)C(C)(C)C)C(=O)NS(=O)(=O)C1(CC2CC2)CC1 [Cmpd 400]
[1]
  EC50: 100 to 1000 nM
[2]
  IC50: < 100 nM

## C=C[C@@H]1C[C@]1(NC(=O)[C@@H]1C[C@@H](Oc2nc(-c3ccccc3)nc3ccccc23)CN1C(=O)[C@@H](NC(C)=O)C(C)(C)C)C(=O)NS(=O)(=O)C1(CC2CC2)CC1 [Cmpd 604]
[1]
  EC50: 100 to 1000 nM
[2]; read-out: IC50
  IC50: < 100 nM

## C=C[C@@H]1C[C@]1(NC(=O)[C@@H]1CC(Oc2ccnc(-c3cccs3)c2)CN1C(=O)[C@@H](NC(=O)OC1CCCC1)C(C)(C)C)C(=O)NS(=O)(=O)C1(CC2CC2)CC1 (stereo partly shown) [Cmpd 700]
[1]
  EC50: < 100 nM
[2]; read-out: IC50
  IC50: < 100 nM

## C=C[C@@H]1C[C@]1(NC(=O)[C@@H]1C[C@@H](Oc2nc(Cl)cc3c(OC)cccc23)CN1C(=O)[C@@H](NC(=O)OC(C)(C)C)C(C)(C)C)C(=O)NS(=O)(=O)C1(CC)CC1 [Cpd 113]
[1]
  EC50: 100 to 1000 nM
[2]
  IC50: < 100 nM
